Reference: PubChem BioAssay (NCI)
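The compound was tested at five concentrations on cells cultured in 96-well plates, with a 48-hour exposure period. GI50: concentration for 50% inhibition of growth. The concentration for full growth arrest is given as TGI.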

Experiments:
Assay in all cases: growth of human tumour cells (NCI), 48 h
OVCAR-8 ovarian = system: OVCAR-8 ovarian
OVCAR-4 ovarian = system: OVCAR-4 ovarian
KM12 colon = system: KM12 colon
SF-268 CNS = system: SF-268 CNS
SNB-75 CNS = system: SNB-75 CNS
UACC-62 melanoma = system: UACC-62 melanoma
SNB-19 CNS = system: SNB-19 CNS
SF-295 CNS = system: SF-295 CNS
MDA-MB-435 = system: MDA-MB-435
SK-MEL-28 melanoma = system: SK-MEL-28 melanoma

SMILES | GI50 (OVCAR-8 ovarian) | TGI (OVCAR-8 ovarian) | GI50 (OVCAR-4 ovarian) | TGI (OVCAR-4 ovarian) | GI50 (KM12 colon) | TGI (KM12 colon) | GI50 (SF-268 CNS) | TGI (SF-268 CNS) | GI50 (SNB-75 CNS) | TGI (SNB-75 CNS) | GI50 (UACC-62 melanoma) | TGI (UACC-62 melanoma) | GI50 (SNB-19 CNS) | TGI (SNB-19 CNS) | GI50 (SF-295 CNS) | TGI (SF-295 CNS) | GI50 (MDA-MB-435) | TGI (MDA-MB-435) | GI50 (SK-MEL-28 melanoma) | TGI (SK-MEL-28 melanoma)
CCN1CCN(Cc2ccc3cc(C(=O)Nc4cc(NC(=O)c5ccc6c(c5)OCCO6)ccc4F)ccc3n2)CC1 | 0.0571 µM | 12.5 µM | 0.0772 µM | 1.91 µM | 0.0786 µM | 7.63 µM | 0.0742 µM | 10 µM | 0.0178 µM | 0.456 µM | 0.0575 µM | 1.19 µM | 0.165 µM | 11.2 µM | 0.0475 µM | 2.92 µM | 0.0608 µM | 3.42 µM | 0.118 µM | 6.75 µM
N=C1N=Nc2nc(C3(c4nc5n(c4O)C(=N)N=N5)Cc4ccccc4C3=O)c(O)n21 (centres undefined) | – | > 100 µM | > 100 µM | > 100 µM | – | > 100 µM | – | > 100 µM | – | > 100 µM | – | > 100 µM | – | > 100 µM | – | > 100 µM | – | > 100 µM | – | > 100 µM
CCC1=C[C@H]2CN(CCc3c([nH]c4ccccc34)[C@@](C(=O)OC)(c3cc4c(cc3OC)N(C)[C@H]3[C@@](O)(C(=O)OC)[C@H](OC(C)=O)[C@]5(CC)[C@@H]6C[C@@H]6CN6CC[C@]43[C@@H]65)C2)C1 | 0.127 µM | 5.8 µM | 0.375 µM | > 25 µM | 0.0313 µM | 3.8 µM | 0.124 µM | 4.04 µM | 0.595 µM | > 25 µM | 0.0211 µM | 5.12 µM | 0.0825 µM | 23.4 µM | 0.0142 µM | 3.15 µM | 0.00603 µM | 0.0211 µM | 2.91 µM | 6.48 µM
Cc1cc(Cl)ccc1Nc1nc(C(F)(F)F)ccc1C(=O)N/N=C/c1ccc(F)cc1 | 1.48 µM | 6.33 µM | 0.513 µM | 12.9 µM | 1.99 µM | 5.33 µM | 1.14 µM | 5.64 µM | 1.55 µM | 9.45 µM | 1.79 µM | 3.82 µM | 2.11 µM | 12 µM | 0.71 µM | 3.63 µM | 2.78 µM | 11 µM | 2.01 µM | 10.6 µM
COc1ccc2c(c1)N(CCC1CCCCN1C)c1ccccc1S2 (centres undefined) | – | 30.9 µM | – | 24 µM | – | 23.6 µM | – | 26.6 µM | – | 24.6 µM | – | 25.2 µM | – | 28.9 µM | – | 31.2 µM | – | 20.6 µM | – | 14.2 µM
COC(=O)/C(Br)=C/c1c[nH]c2ccc(Br)cc12 | 18.2 µM | 34.3 µM | 10.7 µM | 56.8 µM | 12.6 µM | 27 µM | 15.6 µM | 60.3 µM | 12.2 µM | 33 µM | 12.4 µM | 26.7 µM | 16.7 µM | 45.7 µM | 12.4 µM | 27.3 µM | 12.2 µM | 25.3 µM | 14.3 µM | 27.8 µM
Cc1cc(Cl)ccc1Nc1nc(C(F)(F)F)ccc1C(=O)N/N=C/c1c(Cl)cccc1Cl | 0.445 µM | > 100 µM | 0.289 µM | > 100 µM | 0.254 µM | 1.92 µM | 0.354 µM | > 36.4 µM | 1.34 µM | > 100 µM | 0.489 µM | 6.38 µM | 0.683 µM | > 56.6 µM | 0.0741 µM | 0.376 µM | 0.357 µM | > 100 µM | 0.806 µM | > 100 µM
Cc1ccc(S(=O)(=O)N2C/C(=C\c3cc(F)cc(F)c3)C(=O)/C(=C/c3cc(F)cc(F)c3)C2)cc1 | 0.301 µM | 1.77 µM | 0.367 µM | 3.57 µM | 0.268 µM | 0.704 µM | 0.347 µM | 1.31 µM | 1.91 µM | 5.99 µM | 0.231 µM | 0.605 µM | 0.29 µM | 1.1 µM | 0.291 µM | 1.06 µM | 0.236 µM | 0.653 µM | 0.388 µM | 1.32 µM
O=C(Nc1ncc(Cc2ccc(Cl)cc2)s1)c1ccc2c(c1)OCCO2 | 0.17 µM | > 100 µM | 0.547 µM | > 52.1 µM | 0.0414 µM | > 58 µM | 0.786 µM | > 100 µM | 0.0266 µM | 3.4 µM | 0.0543 µM | > 100 µM | 0.08 µM | > 92.4 µM | 0.0424 µM | 2.02 µM | 0.0197 µM | 0.0459 µM | 1.02 µM | > 100 µM
COc1ccc2c(c1)CC[C@@H]1[C@@H]2CC[C@]2(C)c3c(cc(C(=O)c4ccccc4)c4sccc34)C[C@@H]12 | > 100 µM | > 100 µM | 76.8 µM | > 100 µM | > 100 µM | > 100 µM | > 100 µM | > 100 µM | 22.8 µM | > 100 µM | > 100 µM | > 100 µM | > 100 µM | > 100 µM | > 100 µM | > 100 µM | > 100 µM | > 100 µM | > 100 µM | > 100 µM
COc1ccc(/C=C/C(=O)c2ccc(NC(=O)CSc3nnc(-c4cc(OC)c(OC)c(OC)c4)o3)cc2)cc1 | 2.32 µM | 5.73 µM | 2 µM | 4.62 µM | 1.77 µM | 3.4 µM | 1.79 µM | 3.96 µM | 1.47 µM | 3.15 µM | 1.73 µM | 3.43 µM | 1.78 µM | 3.56 µM | 1.77 µM | 3.35 µM | 1.7 µM | 3.4 µM | 1.74 µM | 3.4 µM
CCCNNC(=O)c1ccc(CNC(=O)/C=C/c2ccccc2)cc1 | 0.114 µM | > 100 µM | 0.375 µM | > 100 µM | 0.232 µM | 5.05 µM | 0.316 µM | – | 0.311 µM | > 23.5 µM | 0.0825 µM | 0.249 µM | 0.314 µM | > 100 µM | 0.164 µM | 0.596 µM | 0.2 µM | – | 0.146 µM | 0.857 µM
